The source made the active and inactive calls. The calls are words filed in the database; no cut-off is given here.

Test [1] has as its system Adenosylhomocysteinase (Bos taurus).
Test [2] concerns the target Adenosylhomocysteinase (Homo sapiens) (UniProt P23526). The following applies: Bos taurus.
Test [3] relates to Adenosylhomocysteinase (Bos taurus). In words: Kinetic constant against bovine liver S-adenosyl-L-homocysteine hydrolase (AdoHcy); c = Inactive up to 100 uM.
Test [4] shares this test system. In words: Inhibitory activity against bovine liver S-adenosyl-L-homocysteine hydrolase (AdoHcy); c = Inactive up to 100 uM.
The target of test [5] is Adenosylhomocysteinase (Homo sapiens) (UniProt P23526). To be noted: Bos taurus. This is another data set of the same source.
Sequence of Adenosylhomocysteinase (Homo sapiens) (P23526 2-432 limits assumed): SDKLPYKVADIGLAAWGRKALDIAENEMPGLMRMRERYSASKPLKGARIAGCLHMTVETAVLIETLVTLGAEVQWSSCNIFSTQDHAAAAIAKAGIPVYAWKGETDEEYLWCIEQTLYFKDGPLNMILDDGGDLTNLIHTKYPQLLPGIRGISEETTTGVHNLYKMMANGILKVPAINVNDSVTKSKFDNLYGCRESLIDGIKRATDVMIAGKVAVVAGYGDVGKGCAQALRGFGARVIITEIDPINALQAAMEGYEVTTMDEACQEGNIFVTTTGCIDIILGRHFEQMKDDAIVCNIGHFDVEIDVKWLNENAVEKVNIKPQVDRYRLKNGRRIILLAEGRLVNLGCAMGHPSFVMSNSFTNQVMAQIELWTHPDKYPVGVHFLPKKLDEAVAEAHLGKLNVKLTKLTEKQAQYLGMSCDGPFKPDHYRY
Description: Kinetic constant against bovine liver S-adenosyl-L-homocysteine hydrolase (AdoHcy); reversibleinhibitor

As to `Nc1ncnc2c1ncn2[C@@H]1C[C@H](c2ccccc2)[C@@H](O)[C@H]1O`, the k2 in test [1] amounted to 0.01 min⁻¹.

In test [1], `Nc1ncnc2c1ncn2[C@@H]1CC[C@@H](O)[C@H]1O` yielded a k2 of 0.109 min⁻¹.

In the case of `Nc1ncnc2c1ncn2[C@@H]1C=C(CO)[C@@H](O)[C@H]1O`, the k2 in test [2] is 1.98 min⁻¹.

For the compound `CCC1=C[C@@H](n2cnc3c(N)ncnc32)[C@H](O)[C@@H]1O`, the k2 result in test [3] was “inactive”. In addition, in test [4], the Ki entry is “Inactive”.

Regarding `CC[C@H]1C[C@@H](n2cnc3c(N)ncnc32)[C@H](O)[C@@H]1O`, the k2 in test [1] came to 0.083 min⁻¹.

`C=C[C@H]1C[C@@H](n2cnc3c(N)ncnc32)[C@H](O)[C@@H]1O` showed a k2 in test [1] of 0.053 min⁻¹.

Compound `C[C@@H]1C[C@@H](n2cnc3c(N)ncnc32)[C@H](O)[C@@H]1O` displayed a k2 in test [1] of 0.025 min⁻¹.

On to `CC1=C[C@@H](n2cnc3c(N)ncnc32)[C@H](O)[C@@H]1O`, for which the k2 in test [1] worked out at 0.09 min⁻¹.

As for `Nc1ncnc2c1ncn2[C@@H]1C[C@H](CO)[C@@H](O)[C@H]1O`, in test [5], the k2 result is listed as “Reversible inhibition”.

In turn, `C[C@H]1C[C@@H](n2cnc3c(N)ncnc32)[C@H](O)[C@@H]1O` returned a k2 in test [1] of 0.039 min⁻¹.

In turn, `Nc1ncnc2c1ncn2[C@@H]1C=C[C@@H](O)[C@H]1O` registered a k2 in test [1] of 0.043 min⁻¹.

For the origin of these results see ChEMBL document CHEMBL1126037, “4'-modified analogues of aristeromycin and neplanocin A: synthesis and inhibitory activity toward S-adenosyl-L-homocysteine hydrolase” (J Med Chem, 1992).
